Test results from patent US8586588B2, “Aryl pyridazinone derivatives and their use as H3 receptor ligands” (Cephalon, Inc., priority 2006, dated 2013).
Structures can show the parent of a compound that is named as a salt.

Row | Compound | melting point
1 | CCN(CC)CCCOc1ccc(-c2nn(C(C)C)c(=O)c3ccsc23)cc1 (as salt: HCl) [Example 28, 7-[4-(3-Diethylamino-propoxy)-phenyl]-5-isopropyl-5H-thieno[2,3-d]pyridazin-4-one] | 188 to 190 °C
2 | CC(C)n1nc(-c2ccc(OCCCN3CCCC3)cc2)c2sccc2c1=O (as salt: HCl) [Example 29, 5-Isopropyl-7-[4-(3-pyrrolidin-1-yl-propoxy)-phenyl]-5H-thieno[2,3-d]-pyridazin-4-one] | 144 °C
3 | CC(C)n1nc(-c2ccc(OCCCN3CCC(N4CCCC4)CC3)cc2)c2sccc2c1=O (as salt: HCl) [Example 30, 5-Isopropyl-7-{4-[3-(4-pyrrolidin-1-yl-piperidin-1-yl)-propoxy]-phenyl}-5H-thieno[2,3-d]pyridazin-4-one] | 283 °C (dec.)
4 | CC(C)n1nc(-c2ccc(OCCCN3[C@H](C)CC[C@H]3C)cc2)c2sccc2c1=O (as salt: HCl) [Example 31, 7-{4-[3-((2R,5R)-2,5-Dimethyl-pyrrolidin-1-yl)-propoxy]-phenyl}-5-isopropyl-5H-thieno[2,3-d]pyridazin-4-one] | 106 °C (dec.)
5 | CCCn1nc(-c2ccc(OCCCN3CCC[C@H]3C)cc2)c2sccc2c1=O (as salt: HCl) [Example 32, 7-{4-[3-((R)-2-Methyl-pyrrolidin-1-yl)-propoxy]phenyl}-5-propyl-5H-thieno[2,3-d]pyridazin-4-one] | 151 to 153 °C
6 | CCCn1nc(-c2ccc(OCCCN3[C@H](C)CC[C@H]3C)cc2)c2sccc2c1=O (as salt: HCl) [Example 33, 7-{4-[3-((2R,5R)-2,5-Dimethyl-pyrrolidin-1-yl)-propoxy]-phenyl)-5-propyl-5H-thieno[2,3-d]pyridazin-4-one] | 84 °C (dec.)
7 | CCCn1nc(-c2ccc(OCCCN3CCC(C)CC3)cc2)c2sccc2c1=O (as salt: HCl) [Example 34, 7-{4-[3-(4-Methyl-piperidin-1-yl)-propoxy]-phenyl}-5-propyl-5H-thieno[2,3-d]pyridazin-4-one] | 168 to 170 °C
8 | CCCn1nc(-c2ccc(OCCCN3CCC(N(C)C)CC3)cc2)c2sccc2c1=O (as salt: HCl) [Example 35, 7-{4-[3-(4-Dimethylamino-piperidin-1-yl)-propoxy]-phenyl}-5-propyl-5H-thieno[2,3-d]pyridazin-4-one] | 207 to 209 °C
9 | CCCn1nc(-c2ccc(OCCCN3CCC[C@H]3CN3CCCC3)cc2)c2sccc2c1=O (as salt: HCl) [Example 36, 5-Propyl-7-{4-[3-((S)-2-pyrrolidin-1-ylmethyl-pyrrolidin-1-yl)-propoxy]-phenyl}-5H-thieno[2,3-d]pyridazin-4-one] | 123 °C (dec.)
10 | O=c1c2ccsc2c(-c2ccc(OCCCN3CCCCC3)cc2)nn1Cc1ccc(Cl)cc1 (as salt: HCl) [Example 37, 5-(4-Chloro-benzyl)-7-[4-(3-piperidin-1-yl-propoxy)-phenyl]-5H-thieno[2,3-d]pyridazin-4-one] | 227 to 229 °C
11 | C[C@@H]1CCCN1CCCOc1ccc(-c2nn(Cc3ccc(Cl)cc3)c(=O)c3ccsc23)cc1 (as salt: HCl) [Example 38, 5-(4-Chloro-benzyl)-7-{4-[3-((R)-2-methyl-pyrrolidin-1-yl)-propoxy]-phenyl}-5H-thieno[2,3-d]pyridazin-4-one] | 223 to 224 °C
12 | Cc1cc(-c2ccc(OCCCN3CCC[C@H]3C)cc2)nn(C)c1=O (as salt: HCl) [Example 40, 2,4-Dimethyl-6-{4-[3-((R)-2-methyl-pyrrolidin-1-yl)-propoxy]-phenyl}-2H-pyridazin-3-one] | 175 to 176 °C
13 | Cc1cc(-c2ccc(OCCCN3CCCCC3)cc2)nn(C(C)C)c1=O (as salt: HCl) [Example 42, 2-Isopropyl-4-methyl-6-[4-(3-piperidin-1-yl-propoxy)-phenyl]-2H-pyridazin-3-one] | 197 to 198 °C
14 | Cc1cc(-c2ccc(OCCCN3CCC[C@H]3C)cc2)nn(Cc2ccccc2)c1=O (as salt: HCl) [Example 43, 2-Benzyl-4-methyl-6-{4-[3-((R)-2-methyl-pyrrolidin-1-yl)-propoxy]-phenyl}-2H-pyridazin-3-one] | 190 to 192 °C
15 | Cc1cc(-c2ccc(OCCCN3CCCCC3)cc2)nn(Cc2ccccc2)c1=O (as salt: HCl) [Example 44, 2-Benzyl-4-methyl-6-[4-(3-piperidin-1-yl-propoxy)-phenyl]-2H-pyridazin-3-one] | 232 to 233 °C
16 | C[C@@H]1CCCN1CCCOc1ccc(-c2cc(Cc3ccccc3)c(=O)n(C)n2)cc1 (as salt: HCl) [Example 45, 4-Benzyl-2-methyl-6-{4-[3-((R)-2-methyl-pyrrolidin-1-yl)-propoxy]-phenyl}-2H-pyridazin-3-one] | 232 to 233 °C
17 | Cn1nc(-c2ccc(OCCCN3CCCCC3)cc2)cc(Cc2ccccc2)c1=O (as salt: HCl) [Example 46, 4-Benzyl-2-methyl-6-[4-(3-piperidin-1-yl-propoxy)-phenyl]-2H-pyridazin-3-one] | 186 to 187 °C
18 | C[C@@H]1CCCN1CCCOc1ccc(-c2nn(C)c(=O)cc2-c2ccccc2)cc1 (as salt: HCl) [Example 47, 2-Methyl-6-{4-[3-((R)-2-methyl-pyrrolidin-1-yl)-propoxy]-phenyl}-5-phenyl-2H-pyridazin-3-one] | 207 to 209 °C
19 | Cn1nc(-c2ccc(OCCCN3CCCCC3)cc2)c(-c2ccccc2)cc1=O (as salt: HCl) [Example 48, 2-Methyl-5-phenyl-6-[4-(3-piperidin-1-yl-propoxy)-phenyl]-2H-pyridazin-3-one] | 212 to 214 °C
20 | C[C@@H]1CCCN1CCCOc1ccc(-c2nn(C)c(=O)c3ccccc23)cc1 (as salt: HCl) [Example 49, 2-Methyl-4-{4-[3-((R)-2-methyl-pyrrolidin-1-yl)-propoxy]-phenyl}-2H-phthalazin-1-one] | 216 to 217 °C
21 | Cn1nc(-c2ccc(OCCN3CCCCC3)cc2)c2ccccc2c1=O (as salt: HCl) [Example 51, 2-Methyl-4-[4-(2-piperidin-1-yl-ethoxy)-phenyl]-2H-phthalazin-1-one] | 253 to 254 °C
22 | Cn1nc(-c2ccc(OCCCN3CCCC3)cc2)c2ccccc2c1=O (as salt: HCl) [Example 52, 2-Methyl-4-[4-(3-pyrrolidin-1-yl-propoxy)-phenyl]-2H-phthalazin-1-one] | 201 to 203 °C
23 | Cn1nc(-c2ccc(OCCCN3CCCCCC3)cc2)c2ccccc2c1=O (as salt: HCl) [Example 53, 4-[4-(3-Azepan-1-yl-propoxy)-phenyl]-2-methyl-2H-phthalazin-1-one] | 238 to 240 °C
24 | C[C@@H]1CCCN1CCCOc1ccc(-c2nn(Cc3ccc(Cl)cc3)c(=O)c3ccccc23)cc1 (as salt: HCl) [Example 54, 2-(4-Chloro-benzyl)-4-{4-[3-((R)-2-methyl-pyrrolidin-1-yl)-propoxy]-phenyl}-2H-phthalazin-1-one] | 217 to 218 °C
25 | O=c1c2ccccc2c(-c2ccc(OCCCN3CCCCC3)cc2)nn1Cc1ccc(Cl)cc1 (as salt: HCl) [Example 55, 2-(4-Chloro-benzyl)-4-[4-(3-piperidin-1-yl-propoxy)-phenyl]-2H-phthalazin-1-one] | 216 to 217 °C
